The text below walks through data of PMC3040809 (Amino Acids, 2010).

The target in data set [1] is T1, hOGT (Homo sapiens, UniProt O15294).
T1 sequence (O15294 26-1036 isoform O15294-3): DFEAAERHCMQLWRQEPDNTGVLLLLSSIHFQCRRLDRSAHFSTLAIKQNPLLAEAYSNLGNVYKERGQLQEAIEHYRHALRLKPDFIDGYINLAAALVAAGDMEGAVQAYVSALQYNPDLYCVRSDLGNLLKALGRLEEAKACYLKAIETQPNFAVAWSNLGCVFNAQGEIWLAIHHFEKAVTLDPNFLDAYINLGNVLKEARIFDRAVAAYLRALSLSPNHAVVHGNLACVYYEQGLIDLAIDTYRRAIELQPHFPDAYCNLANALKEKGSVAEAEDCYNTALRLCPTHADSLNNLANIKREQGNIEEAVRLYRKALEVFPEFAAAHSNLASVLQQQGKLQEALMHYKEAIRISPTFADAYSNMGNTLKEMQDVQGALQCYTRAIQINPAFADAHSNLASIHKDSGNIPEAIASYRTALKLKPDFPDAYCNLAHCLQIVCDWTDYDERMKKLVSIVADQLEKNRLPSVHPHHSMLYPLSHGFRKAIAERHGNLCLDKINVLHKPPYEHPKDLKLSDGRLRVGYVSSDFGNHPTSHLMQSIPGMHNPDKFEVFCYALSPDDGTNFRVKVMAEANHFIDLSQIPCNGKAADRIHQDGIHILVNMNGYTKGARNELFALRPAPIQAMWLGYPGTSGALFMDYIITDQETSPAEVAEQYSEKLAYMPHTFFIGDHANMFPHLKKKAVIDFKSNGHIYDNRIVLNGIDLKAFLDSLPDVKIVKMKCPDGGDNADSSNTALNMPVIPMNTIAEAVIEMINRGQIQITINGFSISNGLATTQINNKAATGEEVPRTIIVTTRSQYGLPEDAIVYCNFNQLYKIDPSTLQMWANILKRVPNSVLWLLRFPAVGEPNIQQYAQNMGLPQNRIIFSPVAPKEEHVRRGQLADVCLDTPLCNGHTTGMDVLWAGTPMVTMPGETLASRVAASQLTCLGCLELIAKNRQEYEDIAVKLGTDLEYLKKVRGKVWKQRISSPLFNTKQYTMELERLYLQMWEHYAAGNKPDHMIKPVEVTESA
In kind it is biochemical.

For data set [2] the following is noted: physiological pH; ref Lenzen and Munday [1991]; cited from earlier work.
Data set [3] concerns cellular levels of O-GlcNAcylation. Conditions: ref Liu et al. [2005], [2006], [2007]; Noach et al. [2007]; Kang et al. [2008]; cited from earlier work.

For `O=C1NC(=O)C(=O)C(=O)N1` [Alloxan], the midpoint of inhibition in data set [1], the IC50, lay at 18 ± 1 µM. Also, the half-life time in data set [2] was 1.5 min. In addition, the “concentration required to decrease cellular levels of O-GlcNAcylation” value in data set [3] is given as “millimolar concentrations”.
